Reference: patent US20180298024A1, “CORTISTATIN ANALOGS AND USES THEREOF” (President and Fellows of Harvard College, priority 2015, published 2018)
Where “and” joins values, the source holds several entries; their conditions need not be identical. Equal values may be shown once. One block for each compound: values may come before it.

Experiments:
[1] = target: T1, Tachykinin NK1 (Homo sapiens, UniProt P25103); experiment: Panlab assay, Tachykinin NK1; type: binding
T1 construct: Eurofins Panlabs
Procedure: (§1) Compounds A, B, C, and D were tested in Panlab assays to evaluate potential off-target activity using standard assay kits. Methods employed in these studies have been adapted from the scientific literature to maximize reliability and reproducibility. Reference standards were run as an integral part of each assay to ensure the validity of the results obtained.
(§2) IC50 values were determined by a non-linear, least squares regression analysis using MathIQ™ (ID Business Solutions Ltd., UK). Where inhibition constants (Ki) are presented, the Ki values were calculated using the equation of Cheng and Prusoff (Cheng, Y., Prusoff, W. H., Biochem. Pharmacol. 22:3099-3108, 1973) using the observed IC50 of the tested compound, the concentration of radioligand employed in the assay, and the historical values for the KD of the ligand (obtained experimentally at Eurofins Panlabs, Inc.). Where presented, the Hill coefficient (nH), defining the slope of the competitive binding curve, was calculated using MathIQ™.

[2] = target: hERG potassium channel (Homo sapiens, UniProt Q12809); experiment: in vitro; details: human
Procedure: (§3) The in vitro effects of compounds A, B, C, D, E, and F on the hERG (human ether-à-go-go-related gene) potassium channel current (a surrogate for IKr, the rapidly activating, delayed rectifier cardiac potassium current) expressed in mammalian cells were evaluated at room temperature using the QPatch HT (Sophion Bioscience A/S, Denmark), an automatic parallel patch clamp system. The test articles were evaluated at 1 μM, 3 μM, […] and 30 μM. Each test article concentration was tested in at least three cells. The duration of exposure to each test article concentration was a minimum of 3 minutes.

[3] = target: hERG (human ether-à-go-go-related gene) potassium channel (Homo sapiens, UniProt Q12809); experiment: in vitro
Procedure: as §3

[4] = TurboSol solubility evaluation in physiological saline; type: physicochemical; details: HB-PS+0.3% DMSO
[5] = Tolerability study of Compound F (body weight); type: in vivo, mice
Procedure: Twenty seven mice were used for the tolerability study of Compound F. Mice were randomly assigned to various treatment groups with n=3 mice/group. In the low dose group of 0.3 mg/kg Compound F administered IP, mice were re-challenged after 8 days of drug holiday with a higher dose of 20 mg/kg Compound F, IP. All mice were treated for 7 days unless as indicated below.
Mice were monitored clinically for signs of morbidity and for body weights daily. Mice showing signs of morbidity were euthanized as per study guidelines.

[6] = Pharmacokinetic profile in mice (plasma, LC-MS/MS); details: male, CD-1, mouse, plasma, po, 1 mg/kg
Procedure: Formulation correction for salt content was not required for this study. Materials were vortexed and sonicated at room temperature following addition of vehicle. The solutions were maintained at ambient temperature stirring in the dark for at least 30 minutes prior to dose administration. The formulations were then vortexed and sonicated briefly to help ensure solubility.
Mice were selected from the Testing Facility's rodent colony. The animals were enrolled in the study based on acceptable health as determined by Testing Facility personnel on the day of test article administration. Animals were held in environmental acclimation for at least 48 hours (±6 hours) prior to dosing. Animals were maintained at temperatures between 16-26° C. (62-78° F.) with the humidity range between 30-70%. Animals in all groups were fasted overnight and food was returned 4 hours following dosing. Water was provided ad libitum throughout the study.
Whole blood samples for plasma were either collected from each animal by either direct vein puncture of the submandibular vein (survival blood collection) or by cardiac puncture following euthanasia with CO2 (terminal blood collection). […] Following collection, whole blood was placed into a tube containing K2EDTA and immediately placed on wet ice until processed for plasma. Whole blood samples were centrifuged at 2200×g for 10 minutes in a refrigerated centrifuge (5±3° C.) to isolate plasma. The samples were transferred to individual polypropylene containers and immediately placed on dry ice before storage at −70±10° C. until analysis. Plasma collected from undosed spare animals was pooled and analyzed as well.
Once collected the mouse plasma studies were quantitated using LCMS/MS spectroscopy to determine the concentration of compound. […] Eight calibration standards containing the analyte and internal standard imipramine were prepared and analyzed at the beginning and at the end of the sequence. A calibration curve was generated and sample concentrations calculated using the Quantitation software MassHunter.

[7] = system: off-targets (Panlabs); experiment: Panlab off-target assay panel; type: binding; details: 10 μM
Procedure: as §1, §2

[8] = system: Human AML cell line MV4;11; experiment: MV4;11 disseminated leukemia model (bioluminescence); type: in vivo, NSG mice
Procedure: The in vivo anti-leukemic activity of Compounds A, B, C, D, and F was tested at the indicated doses and treatment schedules. The doses were chosen based on the compounds tolerability profile (i.e. CA was dosed at 0.16 mg/kg because higher doses caused weight loss or other tolerability issues outlined in Example 6). Human AML cell line MV4;11 expressing mCherry and luciferase were injected into NSG mice. Upon measurement of leukemia cell engraftment, treatment was initiated. Body weight and bioluminescence were measured. It has previously been shown (Shair, Nature 2015) that bioluminescence corresponds to leukemia burden. […] Moreover there was no appreciable advantage between IV or PO dosing observed.

[9] = target: T2, hNav1.5 (INa) (Homo sapiens, UniProt Q14524); experiment: INa current, PatchXpress 7000A planar voltage clamp; type: cell-based
T2 construct: expressed in transfected cells; host or cells: CHO or HEK293 cells
Procedure: (§4) The objective of this study was to evaluate the in vitro effects of Compound F on three cardiac ion channel currents: IKr, the rapidly activating, delayed rectifier potassium current through hERG channel encoded by human ether-à-go-go-related gene; IKs, the slowly activating, delayed rectifier cardiac potassium channel current encoded by hKCNQ1/hKCNE1; and INa, the human cardiac Na+ channel current encoded by hNav1.5 in CHO or HEK293 cells (Table 7). This functional assay was conducted using higher throughput planar voltage-clamp technology PatchXpress 7000A.
(§5) Signal amplitudes were quantified at steady state during control (vehicle) and in the presence of increasing concentrations of the test compound. Concentration-dependent changes of signal in response to compound were expressed as percent block relative to control (pre-drug/trigger) and are reported as the mean±SEM (standard error) of the indicated number (N) of tested cells/wells. IC50 values were determined where applicable by fitting the averaged concentration-response data (mean±SEM) with a Hill equation.

[10] = target: T3, hKCNQ1/hKCNE1 (IKs) (Homo sapiens, UniProt P51787); experiment: IKs current, PatchXpress 7000A planar voltage clamp; type: cell-based
T3 construct: expressed in transfected cells; host or cells: CHO or HEK293 cells
Procedure: as §4, §5

[11] = system: SKNO-1; experiment: Half-maximal growth inhibition (GI50), SKNO-1; type: cell-based; details: Homo sapiens, 240 h, AML, M2, RUNX1-RUNX1T1, read-out: GI50 (nM), day 10
Procedure: (§6) Compounds A, B, C, D, and F were tested against various cell lines to probe their broad utility against cancer. Cortistatin A (CA) was also tested against the cell lines in a head to head fashion.

[12] = system: MV4; 11; experiment: Half-maximal growth inhibition (GI50), MV4; 11; type: cell-based; details: Homo sapiens, 240 h, AML, M5, MLL-AF4, read-out: GI50 (nM), day 10
Procedure: as §6

[13] = target: hERG (Homo sapiens, UniProt Q12809); experiment: hERG (IKr) current, PatchXpress 7000A planar voltage clamp; type: cell-based; set-up: expressed in transfected cells; host or cells: CHO or HEK293 cells
Procedure: as §4, §5

[14] = target: T4, hERG channel (IKr) (Homo sapiens, UniProt Q12809); experiment: as above; type: cell-based; details: human, CHO or HEK293 cells expressing the hERG channel; PatchXpress functional voltage clamp
T4 construct: expressed in transfected cells; host or cells: CHO or HEK293 cells
Procedure: as §4, §5

[15] = system: MOLM-14; experiment: Half-maximal growth inhibition (GI50), MOLM-14; type: cell-based; details: Homo sapiens, 240 h, AML, M5, MLL-AF9, read-out: GI50 (nM), day 10
Procedure: as §6

[16] = Individual Data Points (% Inhibition), hERG

T1 sequence (P25103 whole entry): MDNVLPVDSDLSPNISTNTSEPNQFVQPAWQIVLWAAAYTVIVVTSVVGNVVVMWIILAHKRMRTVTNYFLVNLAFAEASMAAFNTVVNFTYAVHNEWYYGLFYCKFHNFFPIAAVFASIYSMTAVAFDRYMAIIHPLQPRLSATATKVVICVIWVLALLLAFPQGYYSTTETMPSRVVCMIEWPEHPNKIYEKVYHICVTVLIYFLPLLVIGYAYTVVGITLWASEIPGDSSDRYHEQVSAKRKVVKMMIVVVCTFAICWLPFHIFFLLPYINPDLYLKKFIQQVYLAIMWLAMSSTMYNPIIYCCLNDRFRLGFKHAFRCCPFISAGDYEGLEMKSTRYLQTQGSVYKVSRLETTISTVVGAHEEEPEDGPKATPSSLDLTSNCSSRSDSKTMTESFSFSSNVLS
Chain of hERG potassium channel (Q12809 whole entry): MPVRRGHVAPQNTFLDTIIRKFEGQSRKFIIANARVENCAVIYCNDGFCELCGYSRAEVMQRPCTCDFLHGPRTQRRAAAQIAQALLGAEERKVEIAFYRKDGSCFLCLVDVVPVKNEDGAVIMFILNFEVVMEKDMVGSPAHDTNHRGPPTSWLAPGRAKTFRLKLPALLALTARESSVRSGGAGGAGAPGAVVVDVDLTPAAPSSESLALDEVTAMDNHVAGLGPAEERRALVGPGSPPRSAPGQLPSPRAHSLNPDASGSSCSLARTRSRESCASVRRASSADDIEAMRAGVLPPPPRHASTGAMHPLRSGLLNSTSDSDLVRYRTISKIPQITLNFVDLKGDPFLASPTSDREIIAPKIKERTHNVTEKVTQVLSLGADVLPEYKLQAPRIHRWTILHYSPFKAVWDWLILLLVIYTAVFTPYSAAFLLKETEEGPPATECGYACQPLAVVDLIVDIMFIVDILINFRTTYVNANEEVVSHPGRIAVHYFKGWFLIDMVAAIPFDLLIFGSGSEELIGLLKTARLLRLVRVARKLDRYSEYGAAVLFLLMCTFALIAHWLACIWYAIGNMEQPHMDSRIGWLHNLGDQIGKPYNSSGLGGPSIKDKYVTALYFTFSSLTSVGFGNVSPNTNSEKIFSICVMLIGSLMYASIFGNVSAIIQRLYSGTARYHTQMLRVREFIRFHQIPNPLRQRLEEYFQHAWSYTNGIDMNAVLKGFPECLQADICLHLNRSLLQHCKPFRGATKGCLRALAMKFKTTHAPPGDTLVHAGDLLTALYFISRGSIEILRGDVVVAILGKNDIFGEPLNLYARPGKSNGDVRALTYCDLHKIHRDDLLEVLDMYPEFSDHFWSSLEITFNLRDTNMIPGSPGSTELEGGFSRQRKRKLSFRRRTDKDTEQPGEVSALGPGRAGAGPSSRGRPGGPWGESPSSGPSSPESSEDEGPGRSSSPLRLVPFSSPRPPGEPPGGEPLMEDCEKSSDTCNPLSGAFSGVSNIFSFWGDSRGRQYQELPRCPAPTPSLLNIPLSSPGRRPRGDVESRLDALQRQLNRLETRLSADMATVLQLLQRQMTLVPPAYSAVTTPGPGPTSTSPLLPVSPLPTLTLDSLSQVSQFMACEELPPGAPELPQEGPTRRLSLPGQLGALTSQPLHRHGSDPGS
Chain of hERG (Q12809 whole entry): as above
T2 sequence (Q14524 whole entry): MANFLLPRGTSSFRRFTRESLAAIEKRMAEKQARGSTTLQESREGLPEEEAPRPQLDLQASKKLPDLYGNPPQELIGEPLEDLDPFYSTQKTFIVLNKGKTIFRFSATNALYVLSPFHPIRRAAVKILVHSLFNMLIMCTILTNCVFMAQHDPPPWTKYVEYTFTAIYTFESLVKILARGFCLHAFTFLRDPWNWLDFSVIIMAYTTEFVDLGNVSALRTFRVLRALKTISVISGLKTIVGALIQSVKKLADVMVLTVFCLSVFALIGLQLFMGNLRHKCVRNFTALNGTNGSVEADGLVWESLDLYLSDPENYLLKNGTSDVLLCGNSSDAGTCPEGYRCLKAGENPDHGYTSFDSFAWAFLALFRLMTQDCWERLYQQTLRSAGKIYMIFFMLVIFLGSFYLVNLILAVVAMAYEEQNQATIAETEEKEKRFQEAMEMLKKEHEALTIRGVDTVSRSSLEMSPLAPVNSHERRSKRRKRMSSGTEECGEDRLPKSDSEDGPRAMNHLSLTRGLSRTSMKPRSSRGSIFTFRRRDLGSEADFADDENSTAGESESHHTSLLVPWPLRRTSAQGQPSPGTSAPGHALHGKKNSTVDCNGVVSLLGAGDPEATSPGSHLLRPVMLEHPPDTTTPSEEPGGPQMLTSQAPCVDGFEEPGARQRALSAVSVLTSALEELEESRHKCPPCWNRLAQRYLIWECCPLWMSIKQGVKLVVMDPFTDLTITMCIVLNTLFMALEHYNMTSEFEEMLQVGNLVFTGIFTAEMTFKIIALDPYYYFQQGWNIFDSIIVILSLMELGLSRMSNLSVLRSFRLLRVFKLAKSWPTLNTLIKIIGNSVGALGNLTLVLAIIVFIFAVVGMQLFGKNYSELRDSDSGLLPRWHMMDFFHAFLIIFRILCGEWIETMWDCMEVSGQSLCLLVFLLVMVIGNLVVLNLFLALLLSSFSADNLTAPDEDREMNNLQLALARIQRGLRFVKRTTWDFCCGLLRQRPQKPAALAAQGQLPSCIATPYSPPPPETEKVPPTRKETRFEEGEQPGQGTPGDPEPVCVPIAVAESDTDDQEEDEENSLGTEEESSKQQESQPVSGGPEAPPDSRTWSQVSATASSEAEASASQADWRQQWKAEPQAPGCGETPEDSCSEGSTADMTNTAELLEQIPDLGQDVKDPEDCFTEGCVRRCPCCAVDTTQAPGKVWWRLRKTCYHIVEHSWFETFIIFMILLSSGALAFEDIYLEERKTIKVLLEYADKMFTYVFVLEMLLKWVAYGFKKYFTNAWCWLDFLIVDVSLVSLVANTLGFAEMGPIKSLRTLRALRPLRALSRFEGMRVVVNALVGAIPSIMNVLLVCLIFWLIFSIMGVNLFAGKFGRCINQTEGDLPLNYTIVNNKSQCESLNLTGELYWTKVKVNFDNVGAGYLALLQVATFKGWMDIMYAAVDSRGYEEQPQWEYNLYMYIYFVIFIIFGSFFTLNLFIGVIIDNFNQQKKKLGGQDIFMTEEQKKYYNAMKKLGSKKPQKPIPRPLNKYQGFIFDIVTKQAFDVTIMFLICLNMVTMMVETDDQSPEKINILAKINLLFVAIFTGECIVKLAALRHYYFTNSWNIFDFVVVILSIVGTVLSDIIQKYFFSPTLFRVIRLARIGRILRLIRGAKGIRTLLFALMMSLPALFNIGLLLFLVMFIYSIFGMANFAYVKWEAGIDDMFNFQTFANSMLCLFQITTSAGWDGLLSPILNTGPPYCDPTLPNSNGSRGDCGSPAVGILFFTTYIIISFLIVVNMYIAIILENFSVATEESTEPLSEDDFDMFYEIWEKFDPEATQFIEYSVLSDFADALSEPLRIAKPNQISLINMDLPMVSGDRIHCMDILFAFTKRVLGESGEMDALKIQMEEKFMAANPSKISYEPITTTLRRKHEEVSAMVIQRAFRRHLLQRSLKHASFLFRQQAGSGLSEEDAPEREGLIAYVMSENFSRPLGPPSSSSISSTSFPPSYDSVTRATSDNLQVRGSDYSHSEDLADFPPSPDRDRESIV

SMILES: Ic1ccccc1CN[C@@H]1C2CCN(CC2)[C@@H]1C(c1ccccc1)c1ccccc1 (racemic) [L-703,606, reference compound]
nH (Hill coefficient), Tachykinin NK1 [1]: 0.88
IC50 ([1]; reference standard): 3.6 nM
Ki ([1]; reference standard, Cheng and Prusoff): 2.6 nM

Average LSU (×1000) ([4]; 1 μM): 3.7 LSU (×1000)
Average LSU (×1000) ([4]; 3 μM): 4.7 LSU (×1000)
Average LSU (×1000) ([4]; 10 μM): 6.4 LSU (×1000)
Average LSU (×1000) ([4]; 30 μM): 8.7 LSU (×1000)
solubility in the TurboSol assay [4]: slightly insoluble at 30 μM
SMILES: C[C@]12CC=C3C=C4CC[C@@H](N5CCCC5)C[C@]45CCC3(O5)[C@@H]1CC[C@@H]2c1ccc2ccncc2c1 [Compound E]
inhibition at 1 µM [2, 16]: 65.6%
inhibition at 3 µM [2, 16]: 83.4%
inhibition at 10 µM [2, 16]: 93.8%
inhibition at 30 µM [2, 16]: 97.7%
inhibition at 1 µM ([2]; Mean % hERG Inhibition): 67.2%
inhibition at 3 µM ([2]; Mean % hERG Inhibition): 79.2%
inhibition at 10 µM ([2]; Mean % hERG Inhibition): 93%
inhibition at 30 µM ([2]; Mean % hERG Inhibition): 98.8%
activity in the hERG assay [3]: sub-micromolar activity
IC50 ([3]; hERG IC50, QPatch HT, room temperature): 562 nM

AUC(0-inf) [6]: 524 ng·h/mL
number of targets with greater than 50% inhibition ([7]; over 100 Panlab assays): over 20
number of targets with inhibition of greater than or equal to 75% ([7]; over 100 Panlab assays): 12
IC50 [10]: 17000 nM
IKS % Block Mean ± SEM (n) ([10]; 10 μM): 34 ± 7 (5) %
IKS % Block Mean ± SEM (n) ([10]; 30 μM): 68±15% and 68 ± 15 (4) %
GI50 [11]: < 1 nM
GI50 [12]: 1 nM
GI50 [15]: 3 nM
SMILES: C[C@]12CC=C3C=C4CC[C@@H](N5CCC5)C[C@]45CCC3(O5)[C@@H]1CC[C@@H]2c1ccc2ccncc2c1 [Compound F]
body weight loss ([5]; IP 20 mg/kg, 2 of 3 mice): > 15%
average body weight loss ([5]; oral 1 mg/kg): ~10%
body weight loss ([5]; oral 3 mg/kg, 3 of 3 mice, requiring drug holiday): > 15%
body weight loss ([5]; oral 10 mg/kg, not tolerated): > 20%
number of targets with ≥75% inhibition ([7]; Safety Panel = 28 binding assays (Eurofins Panlabs)): 12
Fold increase in leukemia burden 15 days after 1st dose ([8]; 1 mpk PO QDx15, NSG mice): 12.3 fold
Efficacy Rank Day 15 ([8]; each compound at its own dose/schedule, data from 3 separate studies): 6
INa at 3 Hz % Block Mean ± SEM (n) ([9]; 3.3 μM, pulsing rate 3 Hz): 30 ± 5 (4) %
INa at 3 Hz % Block Mean ± SEM (n) ([9]; 10 μM, pulsing rate 3 Hz): 60 ± 3 (4) %
inhibition at 30 µM ([9]; 30 μM, pulsing rate 0.2 Hz): 86 ± 2%
INa at 3 Hz % Block Mean ± SEM (n) ([9]; 30 μM, pulsing rate 3 Hz): 98±1% and 98 ± 1 (4) %
IC50 ([9]; pulsing rate 0.2 Hz): 14000 nM
IC50 ([9]; pulsing rate 3 Hz): 6500 nM
hERG % Block Mean ± SEM (n) ([13]; 0.12 μM): 21 ± 2 (3) %
hERG % Block Mean ± SEM (n) ([13]; 0.37 μM): 51 ± 1 (3) %
hERG % Block Mean ± SEM (n) ([13]; 1.1 μM): 77 ± 0 (3) %
hERG % Block Mean ± SEM (n) ([13]; 3.3 μM): 94 ± 0 (4) %
hERG % Block Mean ± SEM (n) ([13]; 10 μM): 97 ± 0 (4) %
hERG % Block Mean ± SEM (n) ([13]; 30 μM): 102 ± 1 (4) %
IC50 ([13]; PatchXpress functional voltage clamp): 370 nM
IC20 [14]: 110 nM
